Reference: patent US20260152509A1, “DELIVERY OF THERAPEUTIC ALKALOID COMPOUNDS” (priority 2021, published 2026)
Where two headings read alike, the source gives them in different places.

Assays:
SERT = target: T1, SERT (Homo sapiens, UniProt P31645); experiment: SERT inhibition, Neurotransmitter Transportation Fluorescence assay; assay type: cell-based; conditions: 30 minutes at 37° C.
T1 construct: expressed in transfected cells
Experimental: SERT inhibition was measured using a Neruotransmitter Transportation Fluorescence assay. […] Compounds were prepared by in assay buffer (20 mM HEPES, 0.1% BSA). The compounds were added to the plated cells and incubated for 30 minutes at 37° C. 25 μL of dye solution (Molecular Devices Neurotransmitter Transporter Uptake Assay Kit) was added per well and incubated for 30 minutes at 37° C. The plates were then read on a plate reader.

[1] = assay type: physicochemical; conditions: for Conversion (%) / Notes (stability): 0.5 mM
Experimental: The hydrolysis kinetics was under a certain temperature and measured by LCMS at a certain time interval. The corresponding LCMS chromatograms were recorded and the conversions were calculated. The hydrolysis conditions and the data were summarized in below table. LCMS spectra were obtained using Agilent 1200\G1956A or SHIMADZU LCMS-2020. Standard LCMS conditions were as follows (running time 1.55 minutes):
Acidic condition: Mobile Phase A: 0.0375% TFA in water (v/v). Mobile Phase B: 0.01875% TFA in acetonitrile (v/v); Column: Kinetex EVO C18 30*2.1 mm, 5 μm.
Basic condition: Mobile Phase A: 0.025% NH3·H2O in water (v/v). Mobile Phase B: Acetonitrile; Column: Kinetex EVO C18 2.1×30 mm, 5 μm.
Conversion (%)=peak area 1/(peak area 1+peak area 2)*100%, peak area 1 is the integration of hydrolyzed product, peak area 2 is the integration of starting material.

[2] = Pharmacokinetics of 047 and 016 after single oral 047 in mice; conditions: analyte after single PO 047 75 mg/kg, male C57BL/6 mice
Experimental: Total twelve male mice were used in this study. Animals were administered through oral route with solution formulation of 047 at 75 mg/kg dose. The formulation vehicle used was normal saline. Blood samples (approximately 60 μL) were collected under light isoflurane anesthesia from a set of two mice at 0.25, 0.5, 1, 2, 4 and 8 h. The blood samples were collected at each time point in labeled micro centrifuge tube containing K2EDTA as anticoagulant and PMSF (100 mM; 10 μL/mL of blood) as a stabilizer. Plasma samples were separated by centrifugation of whole blood and stored below −70° C. until bioanalysis. Following blood collection, immediately animals were sacrificed followed by abdominal vena-cava was cut open and whole body was perfused from heart using 10 mL of normal saline. Brain samples were collected from set of two mice at 0.25, 0.5, 1, 2, 4 and 8 h. After isolation, brain samples were rinsed three times in ice cold normal saline (for 5-10 seconds/rinse using ˜10-20 mL normal saline in disposable petri dish for each rinse) and dried on blotting paper. Brain samples were homogenized using ice-cold phosphate buffer saline (pH-7.4) and PMSF (100 mM; 10 μL/mL of blood) as a stabilizer. Brain homogenates were stored below −70±10° C. until analysis. Total homogenate volume was three times of the brain weight.
Plasma and brain samples were quantified by fit-for-purpose LC-MS/MS method.

[3] = pH = 2.0, 25° C., 0.01M HCl, 0-24 h
[4] = pH = 2.0, 37° C., 0.01M HCl, 0-24 h
[5] = pH = 7.4, 25° C., PBS (20 mM), 0-24 h

T1 sequence (P31645 whole entry, species assumed): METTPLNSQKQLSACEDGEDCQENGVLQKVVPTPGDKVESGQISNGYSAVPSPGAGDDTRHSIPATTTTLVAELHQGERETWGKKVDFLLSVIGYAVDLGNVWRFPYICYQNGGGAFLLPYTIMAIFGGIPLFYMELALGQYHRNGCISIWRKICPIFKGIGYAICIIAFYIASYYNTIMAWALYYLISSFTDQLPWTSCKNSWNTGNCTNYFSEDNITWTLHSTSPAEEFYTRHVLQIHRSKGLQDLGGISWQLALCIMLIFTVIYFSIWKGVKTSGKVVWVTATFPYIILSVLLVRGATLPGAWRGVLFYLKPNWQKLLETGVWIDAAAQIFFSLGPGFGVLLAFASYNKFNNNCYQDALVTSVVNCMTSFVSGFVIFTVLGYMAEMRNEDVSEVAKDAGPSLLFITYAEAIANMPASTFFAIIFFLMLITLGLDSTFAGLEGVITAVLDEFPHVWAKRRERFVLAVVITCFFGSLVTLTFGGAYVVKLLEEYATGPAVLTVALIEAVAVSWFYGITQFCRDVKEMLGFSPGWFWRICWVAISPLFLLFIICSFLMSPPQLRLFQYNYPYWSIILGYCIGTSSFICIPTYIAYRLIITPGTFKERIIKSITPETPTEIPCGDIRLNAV

COc1ccc([C@]23C=CC4(C[C@H]2N(C)CC3)OCCO4)cc1OC [Compound 048, (3′aS,7′aR)-3′a-(3,4-dimethoxyphenyl)-1′-methyl-spiro[1,3-dioxolane-2,6′-2,3,7,7a-tetrahydroindole]]
IC50 (SERT): 939 nM

COc1ccc([C@@]23C=CC4(C[C@@H]2N(C)CC3)OCCO4)cc1OC [Compound 015, (3′aR,7′aS)-3′a-(3,4-dimethoxyphenyl)-1′-methyl-spiro[1,3-dioxolane-2,6′-2,3,7,7a-tetrahydroindole]]
Conversion (%) ([1]; pH = 2.0, 25° C., 0.01M HCl, 1 min): 19%
Conversion (%) ([1]; pH = 2.0, 25° C., 0.01M HCl, 10 min): 46%
Conversion (%) ([1]; pH = 2.0, 25° C., 0.01M HCl, 30 min): 66%
Conversion (%) ([1]; pH = 2.0, 25° C., 0.01M HCl, 120 min): 99%

COc1ccc([C@@]23C=CC4(C[C@@H]2N(C)CC3)SCCS4)cc1OC (stereo in doubt) [Compound 017, 3′a-(3,4-dimethoxyphenyl)-1′-methyl-spiro[1,3-dithiolane-2,6′-2,3,7,7a-tetrahydroindole]]
Conversion (%) [1, 3]: 0%
Notes (stability) [1, 3]: Stable
Conversion (%) [1, 4]: 0%
Notes (stability) [1, 4]: Stable

COc1ccc([C@@]23C=CC4(C[C@@H]2N(C)CC3)OCCO4)cc1OC [Compound 047, (3′aR,7′aS)-3′a-(3,4-dimethoxyphenyl)-1′-methyl-spiro[1,3-dioxolane-2,6′-2,3,7,7a-tetrahydroindole]]
IC50 (SERT): 581 nM
Brain concentrations quantifiable up to [2]: up to 4 h

COc1ccc(C23C=CC4(CC2N(C)CC3)OCCO4)cc1OC (stereo not drawn) [Compound 015, (3′aR,7′aS)-3′a-(3,4-dimethoxyphenyl)-1′-methyl-spiro[1,3-dioxolane-2,6′-2,3,7,7a-tetrahydroindole]]
conversion to mesembrenone (in words) ([1]; pH 2): converted to mesembrenone

COc1ccc([C@@]23C=CC4(C[C@@H]2N(C)CC3)SCCS4)cc1OC [Compound 049, (3′aR,7′aS)-3′a-(3,4-dimethoxyphenyl)-1′-methyl-spiro[1,3-dithiolane-2,6′-2,3,7,7a-tetrahydroindole]]
IC50 (SERT): 159 nM

COc1ccc(C23C=CC(=O)CC2N(C)CC3)cc1OC (racemic) [Compound 016, 3a-(3,4-dimethoxyphenyl)-1-methyl-2,3,7,7a-tetrahydroindol-6-one, reference compound]
further hydrolysis (in words) ([1]; pH 2.0 in 0.01 M HCl to pH 7.4 in 20 mM PBS, 25° C. to 40° C.): did not further hydrolyze
Conversion (%) [1, 5]: 0%
Notes (stability) [1, 5]: Stable
Brain concentrations quantifiable up to [2]: up to 4 h

COc1ccc([C@]23C=CC4(C[C@H]2N(C)CC3)SCCS4)cc1OC [Compound 050, (3′aS,7′aR)-3′a-(3,4-dimethoxyphenyl)-1′-methyl-spiro[1,3-dithiolane-2,6′-2,3,7,7a-tetrahydroindole]]
IC50 (SERT): 405 nM
